These results are taken from US20180344725A1, “QUINOLONE CHALCONE COMPOUNDS AND USES THEREOF” (priority 2015, published 2018).

The test system of one test is NCI-60 cancer cell lines. In words: NCI-60 cancer panel SRB screening. Format: cell-based. The settings on record: 10 μM, 48 hours. As for the experimental part:
Ten μM of CTR-20 was used to examine the drug's efficacy against the NCI-60 cancer cell lines including: six leukemia cell lines, nine non-small cell lung cancer cell lines, seven colorectal cancer cell lines, six CNS cancer cell lines, nine melanoma cell lines, seven ovarian cancer cell lines, seven renal cancer cell lines, two prostate cancer cell lines and six breast cancer cell lines. Screening method was carried out by a sulforhodamine B (SRB) colorimetric assay.

Another test has as its system MCF-7. Description: Immunofluorescent staining: centrosomes and chromosome segregation. It counts as cell-based, human. The settings on record: 1 μM, 24 hours. As for the experimental part:
(§1) Cells on coverslips placed on the bottom of 35 mm tissue culture plates or 6-well clustered dishes were treated for 12-24 hours with the CTR compounds to be tested. Subsequently, the cells were fixed with 100% methanol for 15 minutes and washed with 1×PBS three times. Cells were then “blocked” with 3% BSA or 1% (v/v) FBS plus 1×PBST (1×PBS buffer containing 0.1% (v/v) Triton X-100 or 0.2% Tween 20), and incubated overnight at 4° C. with primary antibodies, with gentle agitation. Unbound primary antibodies were washed off with PBST, and a secondary antibody was added for 1 hour in the dark. Secondary antibodies were conjugated to Alexa 488 or 568. DNA was counterstained with DRAQ5 or DAPI. Subsequently, coverslips were washed three times with 1×PBST for 10 minutes each, followed by mounting them onto slides with 90% glycerol in 1×PBS. Each slide was visualized with a Carl Zeiss 510 Meta laser scanning microscope or an Axioscope. Image analysis was done with an LSM image examiner equipped with the microscopes (Carl Zeiss, Toronto, ON, Canada).
Asynchronously growing cells were treated with 1 μM CTR-20 for 24 hours, followed by examining cells arrested in mitosis. The percentage of mitotic cells was calculated based on the examination of at least 250-400 cells. […]

A further test has as its system HeLa S3 cells. In words: Trypan blue exclusion assay. It counts as cell-based. The settings on record: 1 μM; 72 hours post-treatment. As for the experimental part: Cell survival/death was determined by trypan blue exclusion assays.
Another test deals with ANBL6-BR. Description: Antiproliferation, bortezomib-resistant cells. It counts as cell-based. As to conditions: ANBL6-BR (bortezomib-resistant multiple myeloma). As for the experimental part:
All of the cell lines used were purchased from ATCC and cultured in RPMI-1640 supplemented with 10% fetal bovine serum and antibiotics (100 units penicillin/100 μg/ml streptomycin), unless stated otherwise. 1845B5 and MCF-10A non-cancer breast cell lines were cultured in DME/F12 medium supplemented with 10% fetal bovine serum, antibiotics and growth factors. […] The human small cell lung carcinoma H69 cell line and its multidrug-resistant MRP1-overexpressing isogenic H69AR cell line were purchased from ATCC. […] H69 cells grow as large multi-cell aggregates, making it difficult to accurately count cell numbers. […] The IL-6 dependent bortezomib-resistant ANBL6-BR cell line was further supplemented with 1 ng/ml of IL-6. The MCF10AT1 and MCF10CA1a cell lines are isogenic to the MCF10A cell line, and obtained from Dr. Valerie Weaver at the Center for Bioengineering and Tissue Regeneration, UCSF, CA, USA. […] Cell growth (inhibition) was calculated by the following formula: % cells proliferation=[(AT-CT)/(ST-CT)]×100 wherein AT=absorbance of treated cells, CT=absorbance of negative control cells, and ST=absorbance of sham treated cells. […] The combinational index (CI) was calculated as described previously (Chou 2006). […] CI values were determined from four independent experiments.

The next test has as its system MDA-MB-468. In words: Immunofluorescent staining: centrosomes and chromosome segregation. Format: cell-based, human. As to conditions: 3 μM. As for the experimental part: as §1
The cancer-specific increase of mitotic cells in response to CTR-17 was correlated with the accumulation of cells with monopolar centrosomes and abnormal chromosome alignment/segregation (FIG. 11, Table 5). Cells were either sham-treated or treated with 3.0 μM CTR-17 for 12 hours or 24 hours, followed by analyses of cell cycle progression, centrosome abnormalities, and chromosome alignment/segregation. […] The mitotic index was determined by fluorescence microscopic analysis of at least 200 cells for each cell type, and data was expressed as percentage mean±S.E.M. of at least two independent experiments.

Each structure is given as a SMILES string.

Take `COc1ccc2[nH]c(=O)c(/C=C/C(=O)c3ccccc3OC)cc2c1` [CTR-20, (E)-6-Methoxy-3-(3-(2-methoxyphenyl)-3-oxoprop-1-enyl) quinolin-2(1H)-one]: the “cell survival (range over cell lines)” value is reported as −10.05 to +50.45% with NCI-60 cancer cell lines (nine melanomas); −11.97 to 38.93% in the test on NCI-60 cancer cell lines (nine non-small cell lung cancer cell lines); “+4.37 to +23.11%” in the test with NCI-60 cancer cell lines (seven colorectal cancer cell lines); “+1.18 to +50.80%” in the test with NCI-60 cancer cell lines (seven ovarian cancer cell lines); −7.90 to +42.01% in the test with NCI-60 cancer cell lines (seven renal cancer cell lines); −2.02 to +18.91% with NCI-60 cancer cell lines (six breast cancer cell lines). Further, the “cell survival (range over cell lines)” value is reported as −2.46 to +10.88% with NCI-60 cancer cell lines (six leukemia cell lines) and “+10.76 to +22.06%” in the test with NCI-60 cancer cell lines (two prostate cancer cell lines). For the same compound, the “ACA/S (%) (abnormal chromosome alignment and segregation)” value in the test with MCF-7 is listed as 29.01 ± 2.50%. For the same compound, the “Monopolar (%)” value with MCF-7 turned out to be 62.41 ± 2.99%. Also, in the test on HeLa S3 cells, the cell death is recorded as approximately 70%. The IC50 in the test on ANBL6-BR was 760 ± 280 nM.

On to `COc1ccccc1C(=O)/C=C/c1cc2ccccc2[nH]c1=O` [CTR-17, (E)-3-(3-(2-Methoxyphenyl)-3-oxoprop-1-enyl)quinolin-2(1H)-one], for which, in the test with MDA-MB-468 (12 h post-treatment), the “ACS (abnormal chromosome segregation)” value is on record as 44.7 ± 8.9% of total mitotic cells and the Monopolar centrosome is recorded as 55.3 ± 8.9% of total mitotic cells. Also, in the test with MDA-MB-468 (24 h post-treatment), the “ACS (abnormal chromosome segregation)” value is recorded as 24.0 ± 5.9% of total mitotic cells and the Monopolar centrosome is 76.0 ± 5.9% of total mitotic cells.
